Assays:
Corn [1] = experiment: Field preemergence test, phytotoxic effects on crop; type: in vivo, sweet corn
Excerpt: (§1) Test plots of fertilized, light sandy soil containing 0.7% organic matter are sprayed uniformly with aqueous suspensions prepared from emulsifiable concentrates containing 12%, by weight, of the test chemicals diluted to provide dosage rates of the test compounds corresponding to 2.0, 1.0, 0.5, and 0.25 pound per acre (lb/A). The plots are then sown with seeds of the following crop plants: sweet corn, cotton (Coker 413) and soybeans, var. Davis. Seeds of the following weed plants are planted: redroot pigweed, prickly sida, common lambsquarter, goosegrass and giant foxtail.
(§2) Three to four weeks after planting, percent control (plant kill) of the test plants is estimated, from a rating of 0 which denotes no injury to the plant up to 100 which denotes complete destruction. The herbicidal action of the test compounds obtained on the weed species is as follows:
(§3) Phytotoxic effects observed on the crop species is estimated with results as follows: […]

Soybeans [2] = experiment: as above; type: in vivo, var. Davis
Excerpt: as §1, §2, §3

Barnyardgrass = experiment: Example 18 preemergence herbicide test in different soils, % control; type: in vivo, barnyard-grass; conditions: three weeks
Procedure: (§4) To further illustrate the herbicidal activity of compounds of this invention in different types of soil as would be encountered in different crop growing localities, a preemergence herbicide test is conducted generally as outlined previously herein. Two light sandy soils are employed containing 0.7% and 1.8% organic matter (O.M.), respectively, along with two loam-type, heavier soils containing either 2.0% or 5-5.5% organic matter (O.M.).
(§5) The test plots are all sprayed uniformly with formulations of the test compounds providing 2.0, 1.0, 0.5, and 0.25 pound of active chemical per acre (lb/A).
(§6) Prior to treatment, the soil plots are sown to field corn, soybean, and grain sorghum crops and seeds of barnyard-grass and yellow foxtail.
(§7) Three weeks after planting, the percent control of plant growth is rated from 0% (no injury) to 100% (total destruction).

Yellow Foxtail = experiment: as above; type: in vivo; conditions: three weeks
Procedure: as §4, §5, §6, §7

Soybeans [3] = experiment: Example 18 phytotoxic effects on crop stands in different soils; type: in vivo, soybean
Procedure: as §4, §5, §6
(§8) Three weeks after planting, the percent control of plant growth is rated from 0% (no injury) to 100% (total destruction). The results obtained are as follows:
(§9) Phytotoxic effects on the crop stands are similarly rated with the following results: […]

Sorghum = experiment: as above; type: in vivo, grain sorghum
Procedure: as §4, §5, §6, §8, §9

corn [4] = experiment: Example 17 damage to corn crop; type: in vivo; conditions: 2 lb/A
Excerpt: (§10) This example illustrates the selective herbicidal activity of two of the presently preferred compounds of this invention against various weed species in a corn crop.
(§11) Plots of light sandy soil, cleared of all weeds, are uniformly treated with aqueous dispersions prepared from an emulsifiable concentrate containing 2- 4 pounds of active ingredient per gallon. Diluted aqueous dispersions are applied as surface treatments at 2.0, 1.0, 0.5, and 0.25 pound of active ingredient per acre (lb/A).
(§12) The treated test plots are sown to corn and with seeds of the following weed species:
(§13) Three to four weeks after planting, the degree of damage to both the corn stands and the weed plants is assessed from a rating of 0% (no injury) to 100% (complete destruction).

[5] = tested on: broadleaf species: pigweed, velvetleaf, morningglory; experiment: Greenhouse preemergence herbicide test, broadleaves; type: in vivo; conditions: two weeks after treatment, 20160 min
Procedure: To illustrate the preemergence herbicidal efficiency of the alkyl-substituted 2-chloro-N-propargylacetanilides of this invention, test formulations are prepared of each compound by mixing 20 ml of an acetone solution containing 0.125 g of chemical with 20 ml of water containing 0.01 g of Triton X-155 surfactant. The resultant formulations contain 3125 ppm of test compound, 50% by volume of acetone and 0.025% by weight of surfactant. Appropriate lower concentrations are obtained by diluting this formulation with surfactant-acetone solution so that the concentration of adjuvants is maintained at the original levels.
Seeds of three broadleaf and three grass species are planted in soil contained in 10 inch × 8 inch × 3 inch aluminum pans filled with 1.5 inches of composted soil. The broadleaf species are pigweed (Amaranthus retroflexus), velvetleaf (Abutilon theophrasti), and morningglory (Ipomea coccinea); the grasses are red millet (Panicum milliacem), green foxtail (Setaria viridis) and Japanese millet (Echinochloa frumentacea).
The seeded pans are sprayed so that the soil surface is uniformly covered with dilutions of the stock formulation providing dosage rates of the test compounds as shown in the following table.
Two weeks after treatment, percent control (plant kill) at each dosage rate is estimated with results as follows: […]

Fall Panicum = experiment: Example 17 selective herbicidal activity in corn crop, weed kill; type: in vivo; conditions: Panicum dichotomiflorum, 3-4 weeks after planting
Excerpt: as §10, §11, §12, §13

Velvetleaf = experiment: as above; type: in vivo; conditions: Abutilon theophrasti, 3-4 weeks after planting
Excerpt: as §10, §11, §12, §13

Cotton = experiment: Field preemergence test, phytotoxic effects on crop; type: in vivo, cotton (Coker 413)
Excerpt: as §1, §2, §3

[6] = 0.5 lb/A, Heavy Soil 5-5.5% O.M.
[7] = 0.5 lb/A, Medium Soil 2.0% O.M.
[8] = 1.0 lb/A, Heavy Soil 5-5.5% O.M.
[9] = 1.0 lb/A, Medium Soil 2.0% O.M.
[10] = 2.0 lb/A, Heavy Soil 5-5.5% O.M.
[11] = 2.0 lb/A, Medium Soil 2.0% O.M.

C#CCN(C(=O)CCl)c1c(CC)cccc1CC [Example 9, 2-Chloro-2',6'-diethyl-N-propargylacetanilide]
% Crop Kill, Corn (Corn [1]; 1.0 lb/A): 0% | % Crop Kill, Corn (Corn [1]; 2.0 lb/A): 3% | % Crop Kill, Soybeans (Soybeans [2]; 1.0 lb/A): 0% | % Crop Kill, Soybeans (Soybeans [2]; 2.0 lb/A): 0% | % Control, Barnyardgrass (Barnyardgrass; [6]): 90% | % Control, Barnyardgrass (Barnyardgrass; [7]): 95% | % Control, Barnyardgrass (Barnyardgrass; 0.5 lb/A, Sand 0.7% O.M.): 60% | % Control, Barnyardgrass (Barnyardgrass; 0.5 lb/A, Sand 1.8% O.M.): 85% | % Control, Barnyardgrass (Barnyardgrass; [8]): 98% | % Control, Barnyardgrass (Barnyardgrass; [9]): 100% | % Control, Barnyardgrass (Barnyardgrass; 1.0 lb/A, Sand 0.7% O.M.): 90% | % Control, Barnyardgrass (Barnyardgrass; 1.0 lb/A, Sand 1.8% O.M.): 90% | % Control, Barnyardgrass (Barnyardgrass; [10]): 100% | % Control, Barnyardgrass (Barnyardgrass; [11]): 100% | % Control, Barnyardgrass (Barnyardgrass; 2.0 lb/A, Sand 0.7% O.M.): 100% | % Control, Barnyardgrass (Barnyardgrass; 2.0 lb/A, Sand 1.8% O.M.): 100% | % Control, Yellow Foxtail (Yellow Foxtail; [6]): 90% | % Control, Yellow Foxtail (Yellow Foxtail; [7]): 90% | % Control, Yellow Foxtail (Yellow Foxtail; 0.5 lb/A, Sand 0.7% O.M.): 50% | % Control, Yellow Foxtail (Yellow Foxtail; 0.5 lb/A, Sand 1.8% O.M.): 85% | % Control, Yellow Foxtail (Yellow Foxtail; [8]): 100% | % Control, Yellow Foxtail (Yellow Foxtail; [9]): 100% | % Control, Yellow Foxtail (Yellow Foxtail; 1.0 lb/A, Sand 0.7% O.M.): 70% | % Control, Yellow Foxtail (Yellow Foxtail; 1.0 lb/A, Sand 1.8% O.M.): 80% | % Control, Yellow Foxtail (Yellow Foxtail; [10]): 100% | % Control, Yellow Foxtail (Yellow Foxtail; [11]): 100% | % Control, Yellow Foxtail (Yellow Foxtail; 2.0 lb/A, Sand 0.7% O.M.): 100% | % Control, Yellow Foxtail (Yellow Foxtail; 2.0 lb/A, Sand 1.8% O.M.): 100% | % Phytotoxicity, Soybeans (Soybeans [3]; [6]): 0% | % Phytotoxicity, Soybeans (Soybeans [3]; [7]): 0% | % Phytotoxicity, Soybeans (Soybeans [3]; 0.5 lb/A, Sand 0.7% O.M.): 0% | % Phytotoxicity, Soybeans (Soybeans [3]; 0.5 lb/A, Sand 1.8% O.M.): 0% | % Phytotoxicity, Soybeans (Soybeans [3]; [8]): 0% | % Phytotoxicity, Soybeans (Soybeans [3]; [9]): 0% | % Phytotoxicity, Soybeans (Soybeans [3]; 1.0 lb/A, Sand 0.7% O.M.): 0% | % Phytotoxicity, Soybeans (Soybeans [3]; 1.0 lb/A, Sand 1.8% O.M.): 0% | % Phytotoxicity, Soybeans (Soybeans [3]; [10]): 0% | % Phytotoxicity, Soybeans (Soybeans [3]; [11]): 0% | % Phytotoxicity, Soybeans (Soybeans [3]; 2.0 lb/A, Sand 0.7% O.M.): 0% | % Phytotoxicity, Soybeans (Soybeans [3]; 2.0 lb/A, Sand 1.8% O.M.): 0% | % Phytotoxicity, Sorghum (Sorghum; [6]): 35% | % Phytotoxicity, Sorghum (Sorghum; [7]): 40% | % Phytotoxicity, Sorghum (Sorghum; 0.5 lb/A, Sand 0.7% O.M.): 0% | % Phytotoxicity, Sorghum (Sorghum; 0.5 lb/A, Sand 1.8% O.M.): 10% | % Phytotoxicity, Sorghum (Sorghum; [8]): 75% | % Phytotoxicity, Sorghum (Sorghum; [9]): 55% | % Phytotoxicity, Sorghum (Sorghum; 1.0 lb/A, Sand 0.7% O.M.): 10% | % Phytotoxicity, Sorghum (Sorghum; 1.0 lb/A, Sand 1.8% O.M.): 30% | % Phytotoxicity, Sorghum (Sorghum; [10]): 99% | % Phytotoxicity, Sorghum (Sorghum; [11]): 95% | % Phytotoxicity, Sorghum (Sorghum; 2.0 lb/A, Sand 0.7% O.M.): 30% | % Phytotoxicity, Sorghum (Sorghum; 2.0 lb/A, Sand 1.8% O.M.): 70% | phytotoxic effects on corn (corn [4]): no phytotoxic effects | % Control, Broadleaves ([5]; 0.062 lb/A): 0% | % Control, Broadleaves ([5]; 0.125 lb/A): 0% | % Control, Broadleaves ([5]; 0.25 lb/A): 0% | % Control, Broadleaves ([5]; 0.5 lb/A): 35% | % Control, Broadleaves ([5]; 1.0 lb/A): 35% | mortality at 280.212 g/ha (Fall Panicum; 0.25 lb/A): 73% | mortality at 560.425 g/ha (Fall Panicum; 0.5 lb/A): 88% | mortality at 1120.85 g/ha (Fall Panicum; 1.0 lb/A): 95% | mortality at 2241.7 g/ha (Fall Panicum; 2.0 lb/A): 100% | mortality at 280.212 g/ha (Velvetleaf; 0.25 lb/A): 0% | mortality at 560.425 g/ha (Velvetleaf; 0.5 lb/A): 0% | mortality at 1120.85 g/ha (Velvetleaf; 1.0 lb/A): 6% | mortality at 2241.7 g/ha (Velvetleaf; 2.0 lb/A): 18% | % Crop Kill, Cotton (Cotton; 1.0 lb/A): 0% | % Crop Kill, Cotton (Cotton; 2.0 lb/A): 3%

Reference: patent US4001325A, “α-Chloroacetanilide selective herbicides” (Diamond Shamrock Corporation, priority 1973, dated 1977)
